From US10881698B2, “Diagnosis and treatment for respiratory tract diseases” (THE TRUSTEES OF THE UNIVERSITY OF PENNSYLVANIA, priority 2012, dated 2021)
Substitutions are numbered along the chain they refer to. Values joined by “and” are separate entries in the source; they are usually repeats but may differ in a detail not shown here. Equal entries are not always repeated. Where two headings read alike, the source gives them in different places. Each block holds one molecule with its values, some of them ahead of it.

Assays:
[1] = system: T2R38; experiment: DAF-FM imaging of NO production in human sinonasal ALI cultures; assay type: cell-based; conditions: for DAF-FM fluorescence increase: 5 min, PAV/AVI
[2] = system: sinonasal ALI cultures; assay type: cell-based, human
[3] = system: Pseudomonas aeruginosa; experiment: Kill assay with ASL from stimulated sinonasal ALI cultures (CFU plating); assay type: cell-based
[4] = system: T2R38; experiment: Fluo-4 Ca2+ imaging in primary human sinonasal ALI cultures; assay type: cell-based
[5] = target: T1, T2R38 (Homo sapiens, UniProt P59533, A49P/I296V); experiment: as above; assay type: cell-based; conditions: for Average peak Fluo-4 F/Fo after 5 min stimulation with C6HSL: 200 μM C6HSL
T1 construct: T2R38 is expressed in human upper airway epithelium; endogenous in cells; host or cells: primary human sinonasal epithelial cells, air-liquid interface cultures from surgical patients
T1 sequence (P59533 1-333 A49P/I296V): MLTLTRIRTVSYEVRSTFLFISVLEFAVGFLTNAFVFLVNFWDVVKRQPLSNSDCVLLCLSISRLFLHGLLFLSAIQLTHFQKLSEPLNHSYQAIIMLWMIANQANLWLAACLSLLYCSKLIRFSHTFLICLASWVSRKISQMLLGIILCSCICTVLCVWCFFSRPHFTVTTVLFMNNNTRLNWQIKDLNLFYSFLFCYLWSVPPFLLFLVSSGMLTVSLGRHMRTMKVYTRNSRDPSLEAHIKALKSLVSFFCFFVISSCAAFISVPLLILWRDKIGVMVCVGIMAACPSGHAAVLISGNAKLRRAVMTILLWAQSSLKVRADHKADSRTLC

[6] = target: T2, T2R38 (Homo sapiens, UniProt P59533, A262V); experiment: as above; assay type: cell-based; conditions: AVI/AVI
T2 construct: T2R38 is expressed in human upper airway epithelium; endogenous in cells; host or cells: primary human sinonasal epithelial cells, air-liquid interface cultures from surgical patients
T2 sequence (P59533 1-333 A262V): T1 sequence (P59533 1-333 A49P/I296V) with P49A, A262V, V296I

[7] = target: T3, AVI-TAS2R38 (Homo sapiens, UniProt P59533, A262V); experiment: Fluo-4 calcium mobilization in HEK293 cells expressing hTAS2R38 (AVI) and Gα16gustducin44; assay type: cell-based; conditions: AVI variant
T3 construct: first 45 amino acids of rat SSTR-3 (N); host or cells: HEK293 (peakRapid), transient transfection, pcDNA3.1(+)
T3 sequence (P59533 1-333 A262V): T1 sequence (P59533 1-333 A49P/I296V) with P49A, A262V, V296I

[8] = system: acutely dissociated sinonasal ciliated epithelial cells; experiment: Ca2+ and DAF-FM responses in acutely dissociated sinonasal ciliated cells; assay type: cell-based, human
[9] = target: T1, T2R38; experiment: DAF-FM imaging of NO production in human sinonasal ALI cultures; assay type: cell-based; conditions: for DAF-FM fluorescence increase: 5 min, PAV/PAV
[10] = target: T2, T2R38; experiment: as above; assay type: cell-based; conditions: for DAF-FM fluorescence increase: 5 min, AVI/AVI
[11] = target: T4, PAV-TAS2R38 (Homo sapiens, UniProt P59533, A49P/I296V); experiment: Fluo-4 calcium mobilization in HEK293 cells expressing hTAS2R38 (PAV) and Gα16gustducin44; assay type: cell-based; conditions: PAV variant
T4 construct: first 45 amino acids of rat SSTR-3 (N); host or cells: HEK293 (peakRapid), transient transfection, pcDNA3.1(+)
T4 sequence (P59533 1-333 A49P/I296V): T1 sequence (P59533 1-333 A49P/I296V)

[12] = system: sinonasal ALI cultures; experiment: Mucociliary transport velocity of fluorescent microspheres on sinonasal ALI cultures; assay type: cell-based, human; conditions: for Concentration required to stimulate a significant increase in mucociliary transport: PAV/PAV cultures
[13] = system: sinonasal epithelial cells; experiment: DAF-FM NO production with quinine in PAV/AVI heterozygote sinonasal epithelial cells; assay type: cell-based, human
[14] = system: Pseudomonas aeruginosa
[15] = system: beta-defensin 2; experiment: Beta-defensin 2 secretion by sinonasal cultures; assay type: cell-based, human; conditions: denatonium- or absinthin-stimulated cultures
[16] = system: nasal epithelial cells; experiment: Fluo-4 calcium signaling with denatonium in nasal epithelial cells (sinonasal ALI cultures); assay type: cell-based, human; conditions: for Effect on denatonium induced calcium signaling: 2 mM sucrose or 1 mM sucralose
[17] = C4HSL 200 μM, U73122 5 μM, 20 min pre-incubation

Molecule: CC(=O)NC(C(=O)O)C(C)(C)SN=O (racemic) [SNAP, S-Nitroso-N-Acetyl-D,L-Penicillamine]
- DAF-FM responses between the genotypes (control stimuli) ([1]; SNAP 100 μM, ionomycin): did not yield differential DAF-FM responses between the genotypes

Molecule: Nc1ncnc2c1ncn2[C@@H]1O[C@H](COP(=O)(O)OP(=O)(O)OP(=O)(O)O)[C@@H](O)[C@H]1O [ATP]
- Peak CBF after ATP stimulation between genotypes [2]: not significantly different between cultures of different genotypes
- Bactericidal response on stimulation of cells ([3]; ATP stimulation): no bactericidal response was observed
- Peak F/Fo during stimulation with 1 μM ATP ([4]; L-NAME (50 μM)): 2.0±0.26
- Peak F/Fo during stimulation with 1 μM ATP ([4]; control (no L-NAME)): 1.9±0.21
- ATP-induced Ca2+ responses versus TAS2R38 genotype ([4]; ATP 1 μM, PAV/PAV, PAV/AVI, AVI/AVI cultures): did not correlate with TAS2R38 genotype
- Peak Fluo-4 F/Fo during 10 μM ATP stimulation ([5]; PAV/PAV): 2.96±0.08
- Peak Fluo-4 F/Fo during 10 μM ATP stimulation ([5]; PAV/PAV+U73122): 2.82±0.1
- Peak Fluo-4 F/Fo during 10 μM ATP stimulation ([6]; 10 μM ATP): 2.90±0.09

Molecule: CCCC(=O)N[C@H]1CCOC1=O [C4HSL, N-butyryl-L-homoserine lactone]
- Peak Fluo-4 fluorescence (ΔF/F) ([7]; 200 μM): 0.3±0.4%
- Peak CBF with C4HSL [2]: 1.17±0.02 and 1.02±0.02
- Ca2+ responses in acutely dissociated sinonasal ciliated cells [8]: occurred
- DAF-FM fluorescence increase ([1]; 10 μM): 68±6
- DAF-FM fluorescence increase ([1]; 100 μM): 130±17
- DAF-FM fluorescence increase ([9]; 10 μM): 132±14
- DAF-FM fluorescence increase ([9]; 100 μM): 230±30
- DAF-FM fluorescence increase ([10]; 10 μM): 50±2
- DAF-FM fluorescence increase ([10]; 100 μM): 69±8
- Peak Fluo-4 fluorescence (ΔF/F) ([11]; 200 μM): 61±2%
- Fluo-4 fluorescence after 5 min C4HSL ([4]; 200 μM C4HSL, PAV/AVI): 1.14±0.04
- Fluo-4 fluorescence after 5 min C4HSL ([5]; 200 μM C4HSL, PAV/PAV): 1.29±0.03
- Fluo-4 fluorescence after 5 min C4HSL ([6]; 200 μM C4HSL): 1.10±0.04
- Increase in velocity ([12]; 0.1 μM, PAV/PAV): 1.07±0.02
- Increase in velocity ([12]; 1 μM, PAV/PAV): 1.12±0.03
- Increase in velocity ([12]; 10 μM, PAV/PAV): 1.21±0.04
- Increase in velocity ([12]; 100 μM, AVI/AVI): 1.12±0.03
- Increase in velocity ([12]; 100 μM, PAV/PAV): 1.47±0.07
- Concentration required to stimulate a significant increase in mucociliary transport [12]: 10 µM

Molecule: CCCCCC(=O)N[C@H]1CCOC1=O [C6HSL, N-Hexanoyl-L-homoserine lactone]
- Average peak Fluo-4 F/Fo after 5 min stimulation with C6HSL ([5]; PAV/PAV): 1.52±0.074
- Average peak Fluo-4 F/Fo after 5 min stimulation with C6HSL ([5]; PAV/PAV+U73122): 1.10±0.09
- Average peak Fluo-4 F/Fo after 5 min stimulation with C6HSL ([6]; 200 μM C6HSL): 1.21±0.09

Molecule: CCCCCCCCCC(=O)CC(=O)N[C@H]1CCOC1=O [C12HSL, N-3-oxo-dodecanoyl-L-homoserine lactone]
- Peak Fluo-4 fluorescence (ΔF/F) ([7]; 100 μM): 3±2%
- Peak CBF with C12HSL [2]: 1.25±0.05 and 1.03±0.01
- DAF-FM fluorescence increase ([1]; 10 μM): 77±13
- DAF-FM fluorescence increase ([1]; 100 μM): 109±25
- DAF-FM fluorescence increase ([9]; 10 μM): 235±20
- DAF-FM fluorescence increase ([9]; 100 μM): 351±65
- DAF-FM fluorescence increase ([10]; 10 μM): 44±9
- DAF-FM fluorescence increase ([10]; 100 μM): 64±16
- Peak Fluo-4 fluorescence (ΔF/F) ([11]; 100 μM): 73±5%
- Fluo-4 fluorescence after 10 min C12HSL stimulation ([4]; 100 μM C12HSL, PAV/AVI): 1.28±0.04
- Fluo-4 fluorescence after 10 min C12HSL stimulation ([5]; 100 μM C12HSL, PAV/PAV): 1.52±0.08
- Fluo-4 fluorescence after 10 min C12HSL stimulation ([6]; 100 μM C12HSL): 1.14±0.01
- Increase in velocity ([12]; 0.1 μM, PAV/PAV): 1.09±0.02
- Increase in velocity ([12]; 1 μM, PAV/PAV): 1.23±0.04
- Increase in velocity ([12]; 10 μM, PAV/PAV): 1.48±0.04
- Increase in velocity ([12]; 100 μM, AVI/AVI): 1.14±0.03
- Increase in velocity ([12]; 100 μM, PAV/PAV): 1.64±0.04
- Concentration required to stimulate a significant increase in mucociliary transport [12]: 1 µM

Molecule: COC(=O)[C@H](N)CCCN=C(N)N[N+](=O)[O-] [D-NAME]
- Effect on HSL-stimulated CBF increase [2]: not

Molecule: COC(=O)[C@@]1(OC)C[C@H]2O[C@]1(C)n1c3ccccc3c3c4c(c5c6ccccc6n2c5c31)C(=O)N(C)C4 [KT5823]
- Effect on HSL-stimulated CBF increase [2]: blocked

Molecule: COC(=O)[C@@H](N)CCCNC(=N)N[N+](=O)[O-] [L-NAME, L-N^G-Nitroarginine methyl ester]
- Effect on CBF increase in response to 6.25% PAO1 supernatant [2]: significantly inhibited
- Effect on HSL-stimulated CBF increase [2]: blocked
- Effect on NaSCN-activated DAF-FM fluorescence [1]: blocked
- Effect on C4HSL-induced NO production in taster cultures [9]: represses the NO production
- Effect on quinine-stimulated NO production ([13]; L-NAME 20 μM): inhibited
- % green (viable) PAO1 [14]: 90±2%

Molecule: CCCc1cc(=O)[nH]c(=S)[nH]1 [PROP, 6-n-propylthiouracil]
- Intracellular DAF-FM fluorescence (NO production) ([9]; apical application, PAV/PAV (taster) cells): stimulated an increase in intracellular DAF-FM fluorescence

- Effect on C4HSL-induced NO production in taster cultures [9, 17]: blocked
Molecule: COc1ccc2c(c1)CC[C@@H]1[C@@H]2CC[C@]2(C)[C@@H](NCCCCCCN3C(=O)C=CC3=O)CC[C@@H]12 [U73122]
- Effect on denatonium-induced antimicrobial response ([3]; U73122 20 μM): inhibited
- Effect on beta-defensin secretion [15]: may be blocked

- Effect on C4HSL-induced NO production in taster cultures [9, 17]: had no effect on NO production
Molecule: COc1ccc2c(c1)CC[C@@H]1[C@@H]2CC[C@]2(C)[C@@H](NCCCCCCN3C(=O)CCC3=O)CC[C@@H]12 [U73343]
- Effect on beta-defensin secretion [15]: had no effect

Molecule: CC1(C)N([O])C(c2ccc(C(=O)O)cc2)=[N+]([O-])C1(C)C [cPTIO]
- % green (viable) PAO1 [14]: 93±2%

Molecule: C[C@H](CCC(=O)O)C[C@H](C)C[C@H](C)C(=O)/C=C(\O)[C@H](C)C[C@H](C)C/C=C/[C@@H](C)[C@@H](O)[C@@H](C)[C@@H](O)C[C@@H]1CC[C@@](C)([C@H]2CC[C@@](C)([C@@H](C)O)O2)O1 [ionomycin]
- DAF-FM responses between the genotypes (control stimuli) [1]: did not yield differential DAF-FM responses between the genotypes

Molecule: COc1ccc(OC(C)C(=O)O)cc1 (stereo not shown) [lactisole]
- Effect on glucose-mediated inhibition of bacterial kill ([3]; lactisole 5 mM): reduced or reversed the glucose-mediated inhibition of bacterial kill
- Effect on sucrose/sucralose inhibition of denatonium calcium signaling ([16]; sweet receptor antagonist): substantially eliminates the inhibition

Molecule: C=C[C@H]1C[N@@]2CC[C@H]1C[C@H]2[C@H](O)c1ccnc2ccc(OC)cc12 [quinine]
- NO production (increase in DAF-FM fluorescence) ([13]; apical application, PAV/AVI heterozygote cells): stimulated a robust NO production

- Peak Fluo-4 fluorescence (ΔF/F) ([7]; 10 mM): 3±1%
- Peak Fluo-4 fluorescence (ΔF/F) ([11]; 10 mM): 1.4±0.3%
Molecule: OCc1ccccc1O[C@@H]1O[C@H](CO)[C@@H](O)[C@H](O)[C@H]1O [salicin]

Molecule: OC[C@H]1O[C@H](O[C@]2(CCl)O[C@H](CCl)[C@@H](O)[C@@H]2O)[C@H](O)[C@@H](O)[C@H]1Cl [sucralose]
- Effect on denatonium induced calcium signaling [16]: inhibits denatonium induced calcium signaling

Molecule: OC[C@H]1O[C@@](CO)(O[C@H]2O[C@H](CO)[C@@H](O)[C@H](O)[C@H]2O)[C@@H](O)[C@@H]1O [sucrose]
- Effect on denatonium induced calcium signaling [16]: inhibits denatonium induced calcium signaling

Molecule: CC(C)[C@]12CC(=O)[C@H](C)[C@H]1C2 [thujone]
- NO production with non-T2R38 bitter ligands [9]: did not stimulate NO production
- Ca2+ responses in sinonasal ALI cultures ([16]; non-T2R38 bitter agonists): not

Molecule: colistin sulfate
- % green (viable) PAO1 [14]: 4±2%

Molecule: sodium thiocyanate [NaSCN]
- DAF-FM fluorescence increase after 5 min NaSCN [9]: 202±38 units
- DAF-FM fluorescence increase after 5 min NaSCN [10]: 61±23 units
- F/Fo after stimulation with 5 mM NaSCN ([4]; +L-NAME (50 μM)): 1.24±0.07
- F/Fo after stimulation with 5 mM NaSCN ([4]; control (no L-NAME)): 1.33±0.08
